Data on 19 compounds can be found in patent publication US8574563B2 (Bristol-Myers Squibb Company, priority 2006, dated 2013).

A word on the EC50: it is the midpoint of the concentration-response curve.

The first experiment relates to HCV 1b-377-neo replicon cells. The experiment in a line: HCV replicon assay, HCV 1b-377-neo replicon cells (1b FRET). In kind it is cell-based, Hepatitis C virus genotype 1b. Particulars: HCV 1b-377-neo replicon cells; HCV 1b genotype; read-out: EC50 range against HCV 1b (Table 2, Range). The method in brief: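 Compounds were tested in genotype 1b subgenomic replicon cells carrying a neomycin marker, alongside a matched replicon line with an NS5A Y2065H substitution that confers resistance to a reference NS5A inhibitor.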
A general note: A replicon is a self-replicating genome or part of one, used to study replication in cells.
For the compound `COC(=O)N[C@@H](C(=O)N1CCC[C@H]1c1ncc(-c2ccc(-c3ccc(-c4cnc([C@@H]5CCCN5C(=O)[C@@H]5C[C@H](F)CN5)[nH]4)cc3)cc2)[nH]1)c1ccccc1` [Example 79, methyl ((1R)-2-((2)S-2-(5-(4′-(2-((2S)-1-((4S)-4-fluoro-L-prolyl)-2-pyrrolidinyl)-1H-imidazol-5-yl)-4-biphenylyl)-1H-imidazol-2-yl)-1-pyrrolidinyl)-2-oxo-1-phenylethyl)carbamate], the EC50 is 0.001 to 0.999 nM.

Still in this experiment, the particulars now being: Hepatitis C virus, HCV 1b-377-neo replicon cells; HCV 1b genotype; read-out: EC50 range against HCV 1b (Table 2, Range).
Regarding `COCC[C@H](NC(=O)OC)C(=O)N1CCC[C@H]1c1ncc(-c2ccc(-c3ccc(-c4cnc([C@@H]5CCCN5C(=O)[C@H]5CCC[C@@H]5NC(=O)OC)[nH]4)cc3)cc2)[nH]1` [cj-122, methyl ((1S,2S)-2-(((2S)-2-(5-(4′-(2-((2S)-1-(N-(methoxycarbonyl)-O-methyl-L-homoseryl)-2-pyrrolidinyl)-1H-imidazol-5-yl)-4-biphenylyl)-1H-imidazol-2-yl)-1-pyrrolidinyl)carbonyl)cyclopentyl)carbamate], the EC50 lay within 0.001 to 0.999 nM.

Turning to `COC(=O)N[C@@H](C(=O)N(C)[C@@H](C)c1ncc(-c2ccc(-c3ccc(-c4cnc([C@@H]5CCCN5C(=O)[C@@H](c5ccccc5)N(C)C)[nH]4)cc3)cc2)[nH]1)c1ccccc1` [Example 131.1-1, methyl ((1R)-2-(((1S)-1-(5-(4′-(2-((2S)-1-((2R)-2-(dimethylamino)-2-phenylacetyl)-2-pyrrolidinyl)-1H-imidazol-5-yl)-4-biphenylyl)-1H-imidazol-2-yl)ethyl)(methyl)amino)-2-oxo-1-phenylethyl)carbamate], the EC50 was 0.001 to 0.999 nM. The same measure, in the same setting: to `COC(=O)N[C@@H](C(=O)N1CCC[C@H]1c1ncc(-c2ccc(-c3ccc(-c4cnc([C@@H]5CCCN5C(=O)C(c5cccs5)N(C)C)[nH]4)cc3)cc2)[nH]1)c1ccccc1` (stereo partly drawn) [Example 84-46, methyl ((1R)-2-((2S)-2-(5-(4′-(2-((2S)-1-((dimethylamino)(2-thienyl)acetyl)-2-pyrrolidinyl)-1H-imidazol-5-yl)-4-biphenylyl)-1H-imidazol-2-yl)-1-pyrrolidinyl)-2-oxo-1-phenylethyl)carbamate] belongs 0.001 to 0.999 nM; to `COC(=O)N[C@@H](C(=O)N1CCC[C@H]1c1ncc(-c2ccc(-c3ccc(-c4cnc([C@@H]5CCCN5C(=O)CN)[nH]4)cc3)cc2)[nH]1)c1ccccc1` [Example 30, methyl ((1R)-2-((2S)-2-(5-(4′-(2-((2S)-1-glycyl-2-pyrrolidinyl)-1H-imidazol-5-yl)-4-biphenylyl)-1H-imidazol-2-yl)-1-pyrrolidinyl)-2-oxo-1-phenylethyl)carbamate], 1 to 99 nM; to `COC(=O)N[C@@H](C)C(=O)N1CCC[C@H]1c1ncc(-c2ccc(-c3ccc(-c4cnc([C@@H]5CCCN5C(=O)[C@@H]5CCC[C@H]5NC(=O)OC)[nH]4)cc3)cc2)[nH]1` [cj-108, methyl ((1R,2R)-2-(((2S)-2-(5-(4′-(2-((2S)-1-(N-(methoxycarbonyl)-L-alanyl)-2-pyrrolidinyl)-1H-imidazol-5-yl)-4-biphenylyl)-1H-imidazol-2-yl)-1-pyrrolidinyl)carbonyl)cyclopentyl)carbamate], 0.001 to 0.999 nM. Same read-out and setting: under `COC(=O)N[C@H](C(=O)N1CCC[C@H]1c1nc(-c2cnc(-c3ccc(-c4cnc([C@@H]5CCCN5C(=O)[C@@H](NC(=O)OC)[C@@H](C)OC)[nH]4)c(F)c3)nc2)c[nH]1)[C@@H](C)OC` [Example D70, methyl ((1S,2R)-1-(((2S)-2-(5-(2-fluoro-4-(5-(2-((2S)-1-(N-(methoxycarbonyl)-O-methyl-L-threonyl)-2-pyrrolidinyl)-1H-imidazol-5-yl)-2-pyrimidinyl)phenyl)-1H-imidazol-2-yl)-1-pyrrolidinyl)carbonyl)-2-methoxypropyl) carbamate] stands 0.001 to 0.999 nM; under `COC(=O)N[C@@H](C)C(=O)N(C)[C@@H](C)c1ncc(-c2ccc(-c3ccc(-c4[nH]c([C@@H]5CCCN5C(=O)[C@H](C)NC(=O)OC)nc4C(F)(F)F)cc3)cc2)[nH]1` [Example J42.a, methyl ((1S)-2-((2S)-2-(5-(4′-(2-((1S)-1-((N-(methoxycarbonyl)-L-alanyl)(methyl)amino)ethyl)-1H-imidazol-5-yl)-4-biphenylyl)-4-(trifluoromethyl)-1H-imidazol-2-yl)-1-pyrrolidinyl)-1-methyl-2-oxoethyl)carbamate], 0.001 to 0.999 nM; under `COC(=O)N[C@H](C(=O)N1CCC[C@H]1c1ncc(-c2ccc(-c3ccc(-c4cnc([C@@H]5CCCN5C(=O)[C@@H](N)C(C)C)[nH]4)cc3)cc2)[nH]1)C(C)C` [Example M108, methyl ((1S)-2-methyl-1-(((2S)-2-(5-(4′-(2-((2S)-1-L-valyl-2-pyrrolidinyl)-1H-imidazol-5-yl)-4-biphenylyl)-1H-imidazol-2-yl)-1-pyrrolidinyl)carbonyl)propyl)carbamate], 1 to 99 nM. Still for that read-out and setting: under `CC(C)(C)OC(=O)N1CCC(C)(C(=O)N2CCC[C@H]2c2ncc(-c3ccc(-c4ccc(-c5cnc([C@@H]6CCCN6C(=O)[C@@H](c6ccccc6)N6CCCCC6)[nH]5)cc4)cc3)[nH]2)CC1` [Example 107-14, tert-butyl 4-methyl-4-(((2S)-2-(5-(4′-(2-((2S)-1-((2R)-2-phenyl-2-(1-piperidinyl)acetyl)-2-pyrrolidinyl)-1H-imidazol-5-yl)-4-biphenylyl)-1H-imidazol-2-yl)-1-pyrrolidinyl)carbonyl)-1-piperidinecarboxylate] stands 0.001 to 0.999 nM; under `COC(=O)N[C@@H](C(=O)N1CCC[C@H]1c1ncc(-c2ccc(-c3ccc(-c4cnc([C@@H]5CCCN5C(=O)C(c5noc6ccccc56)N(C)C)[nH]4)cc3)cc2)[nH]1)c1ccccc1` (stereo partly drawn) [Example 84-49, methyl ((1R)-2-((2S)-2-(5-(4′-(2-((2S)-1-(1,2-benzisoxazol-3-yl(dimethylamino)acetyl)-2-pyrrolidinyl)-1H-imidazol-5-yl)-4-biphenylyl)-1H-imidazol-2-yl)-1-pyrrolidinyl)-2-oxo-1-phenylethyl)carbamate], 0.001 to 0.999 nM; under `CC(C)[C@H](Nc1ncccn1)C(=O)N1[C@@H]2C[C@@H]2C[C@H]1c1ncc(-c2ccc(-c3ccc(-c4cnc([C@@H]5C[C@H]6C[C@H]6N5C(=O)[C@@H](Nc5ncccn5)C(C)C)[nH]4)cc3)cc2)[nH]1` [Example M144, N,N′-(4,4′-biphenyldiylbis(1H-imidazole-4,2-diyl(1R,3S,5R)-2-azabicyclo[3.1.0]hexane-3,2-diyl((2S)-3-methyl-1-oxo-1,2-butanediyl)))di(2-pyrimidinamine)], 0.001 to 0.999 nM. In the case of `COC(=O)N[C@H](C(=O)N1CCC[C@H]1c1ncc(-c2ccc(-c3ccc(-c4cnc([C@@H]5CCCN5C(=O)[C@@H](N)C(C)(C)O)[nH]4)cc3)cc2)[nH]1)C(C)C` [Example M104, methyl ((1S)-1-(((2S)-2-(5-(4′-(2-((2S)-1-(3-hydroxy-L-valyl)-2-pyrrolidinyl)-1H-imidazol-5-yl)-4-biphenylyl)-1H-imidazol-2-yl)-1-pyrrolidinyl)carbonyl)-2-methylpropyl)carbamate], the EC50 lay within 100 to 999 nM.

For `COC(=O)N[C@H](C(=O)N1CCC[C@H]1c1ncc(-c2ccc(-c3ccc(-c4cnc([C@@H]5CCCN5C(=O)[C@@H](NC(=O)OC)C(C)(C)O)[nH]4)cc3)cc2)[nH]1)C(C)(C)O` [Example M14, methyl ((1S)-2-hydroxy-1-(((2S)-2-(5-(4′-(2-((2S)-1-((2S)-3-hydroxy-2-((methoxycarbonyl)amino)-3-methylbutanoyl)-2-pyrrolidinyl)-1H-imidazol-5-yl)-4-biphenylyl)-1H-imidazol-2-yl)-1-pyrrolidinyl)carbonyl)-2-methylpropyl)carbamate], the EC50 was in the range of 100 to 999 nM.

As to `COC(=O)N[C@@H](CC(=O)N1CCC[C@H]1c1ncc(-c2ccc(-c3ccc(-c4cnc([C@@H]5CCCN5C(=O)C[C@@H](Cc5ccsc5)NC(=O)OC)[nH]4)cc3)cc2)[nH]1)Cc1ccsc1` [cj-137, dimethyl (4,4′-biphenyldiylbis(1H-imidazole-5,2-diyl(2S)-2,1-pyrrolidinediyl((2R)-4-oxo-1-(3-thienyl)-4,2-butanediyl)))biscarbamate], the EC50 was 1 to 99 nM. The same measure, in the same setting: to `COC(=O)N[C@H](C(=O)N1CCC[C@H]1c1ncc(-c2ccc(-c3ccc(-c4cnc([C@@H]5CCCN5C(=O)[C@H](Nc5ncccn5)C(C)C)[nH]4)cc3)cc2)[nH]1)C(C)C` [cj-11i, methyl ((1S)-2-methyl-1-(((2S)-2-(5-(4′-(2-((2S)-1-(N-2-pyrimidinyl-D-valyl)-2-pyrrolidinyl)-1H-imidazol-5-yl)-4-biphenylyl)-1H-imidazol-2-yl)-1-pyrrolidinyl)carbonyl)propyl)carbamate] belongs 0.001 to 0.999 nM; to `CCN(CC)[C@@H](C(=O)N1CCC[C@H]1c1ncc(-c2ccc(-c3ccc(-c4cnc([C@@H]5CCCN5C(=O)C[C@@H](NC(=O)OC)C(C)C)[nH]4)cc3)cc2)[nH]1)c1ccccc1` [cj-52, methyl ((1R)-3-((2S)-2-(5-(4′-(2-((2S)-1-((2R)-2-(diethylamino)-2-phenylacetyl)-2-pyrrolidinyl)-1H-imidazol-5-yl)-4-biphenylyl)-1H-imidazol-2-yl)-1-pyrrolidinyl)-1-isopropyl-3-oxopropyl)carbamate], 0.001 to 0.999 nM. As to `O=C(c1cscn1)N1CCC[C@H]1c1ncc(-c2ccc(-c3ccc(-c4cnc([C@@H]5CCCN5C(=O)[C@@H](c5ccccc5)N5CCCCC5)[nH]4)cc3)cc2)[nH]1` [Example 107-11, 1-((1R)-2-oxo-1-phenyl-2-((2S)-2-(5-(4′-(2-((2S)-1-(1,3-thiazo1-4-ylcarbonyl)-2-pyrrolidinyl)-1H-imidazol-5-yl)-4-biphenylyl)-1H-imidazol-2-yl)-1-pyrrolidinyl)ethyl)piperidine], the EC50 was in the range of 0.001 to 0.999 nM.

For `CCCOC(=O)N[C@@H](C)C(=O)N1CCC[C@H]1c1nc(-c2ccc(-c3ccc(-c4cnc([C@@H]5CCCN5C(=O)[C@H](C)NC(=O)OCCC)[nH]4)cc3)cc2)c[nH]1` [Example F20, propyl ((1S)-1-methyl-2-oxo-2-((2S)-2-(4-(4′-(2-((2S)-1-(N-(propoxycarbonyl)-L-alanyl)-2-pyrrolidinyl)-1H-imidazol-5-yl)-4-biphenylyl)-1H-imidazol-2-yl)-1-pyrrolidinyl)ethyl)carbamate], the EC50 is 100 to 999 nM.
